Experimental data taken from patent US20080234230A1, “Pharmaceutical Composition for Regulation of Pancreatic Juice Secretion Comprising a LPA Receptor Modulator” (ONO PHARMACEUTICAL CO., LTD., priority 2001, published 2008).
Where no end group is shown, it is not given here. The star is where a group is joined. SO3H = O=S(=O)(O)*

Experiments:
[1] = tested on: pancreatic juice secretion; assay: Effect of LPA receptor or EDG-2 antagonist on pancreatic juice secretion in rats (Example 7); format: in vivo, rat
Experimental: Using Compound 1 having the effect as a EDG-2 antagonist was confirmed in Example 5, the effect of LPA on the pancreatic juice secretion was examined.
In rats, (1) 18:3-LPA and (2) saline as a control (vehicle) for 18:3-LPA were respectively infused through the femoral vein, and (3) Compound 1 and (4) 5% bovine serum albumin/10% DMSO/saline as a control (vehicle) for Compound 1 were respectively infused through the cervical vein, at a rate of 0.5 ml/h for 1 hour.
On the other hand, saline was previously infused through the femoral vein and cervical vein (0.5 ml/h), and after one hour the pancreatic juice was collected in order to ascertain that there was no difference in the initial volumes of the secreted pancreatic juice in rats in each group.

[2] = tested on: pancreatic juice secretion; assay: Determination of the amount of pancreatic juice secreted in rats (Example 1); format: in vivo, rat
Experimental: Male rats (8 to 9 week-old) fasting from the morning of the previous day were anesthetized by subcutaneous application of urethane (1.2 g/5 ml/kg) and polyethylene tubes were inserted into the arteria carotis communis and the femoral vein. The abdomen was cut open along the median line and the gastric pylorus was ligated. Then, a polyethylene tube was inserted into the bile duct at the hepatic portal portion, through which the tip of the tube was inserted into the pore opened in the duodenum intestine in order to return bile to the duodenum intestine. The origin of the hepatoapancreatic tube from the duodenum intestine was cut open, into which a tube was inserted in the same way as in the bile duct and led outside the body. Pure pancreatic juice was collected from the tube.
The drug was continuously administered through the femoral vein with saline. On the other hand, a saline containing 18:3-LPA, 18:3-LPC or 0.5% bovine serum albumin (Sigma, A-0281) as control (vehicle) was infused (1 ml/h) through the cervical vein, and pancreatic juice was collected for 1 hour.
The volume of the collected pancreatic juice was measured. In this connection, saline was infused through the cervical vein and the femoral vein 1 hour before administration of the drug, during which time the amount of pancreatic juice secreted was measured in order to ascertain that there was no considerable difference between individual animals in the pre-value to the pancreatic juice secretion in the individual animals.

[3] = tested on: amylase secretion; assay: Determination of the amount of amylase secreted (Example 2); format: in vivo, rat
Experimental: The pancreatic juice collected in Example 1 was diluted with Dulbecco's phosphate-buffered saline(−) (PBS(−)) at an appropriate dilution rate, of which the amylase activity was determined with a reagent of a Diacolor AMY Neorate (Ono Pharmaceutical) kit. To 10 μl of an amylase standard solution (Worthington Biochemical, diluted to 100 U/L to 6,400 U/L with PBS(−)) or the collected diluted pancreatic juice was added 50 μl of an enzyme reagent of the kit, and the mixture was incubated at 37° C. for 3 minutes. Then, after addition of 50 μl of a substrate reagent of the kit, the variation (Vmax) of optical density (OD) at 400 nm was monitored at 37° C. for 3 minutes (SPECTRAMAX 250). The amylase activity was calculated from an amylase standard curve to evaluate the effect of the subject substance by means of the secreted amount of the enzyme (U/h) obtained by the enzyme activity (concentration) (U/L) multiplied by the amount of pancreatic juice collected (L/h).

[4] = tested on: lipase secretion; assay: Determination of the amount of lipase secreted (Example 3); format: in vivo, rat; conditions: rats
Experimental: The pancreatic juice collected in Example 1 was diluted with saline at an appropriate dilution rate and the lipase activity was measured with a reagent contained in Liquitech Lipase Color kit (Roche Diagnostics). Then, 100 μl of a kit R-1 solution was added to 10 μl of a lipase standard solution (Worthington Biochemical; prepared to 1 U/L to 1,000 U/L with saline) or the collected diluted pancreatic juice, and the mixture was incubated at 37° C. for 5 minutes. Then, 60 μl of a kit R-2 solution was added and the variation (Vmax) of optical density (OD) at 570-700 nm was monitored at 37° C. for 3 minutes (SPECTRAMAX 250). The lipase activity of the pancreatic juice was calculated from a lipase standard curve to evaluate the effect of the subject substance by means of the secreted amount of the enzyme (U/h) obtained by the enzyme activity (concentration)(U/L) multiplied by the amount of pancreatic juice collected (L/h).

[5] = tested on: cholecystokinin-induced pancreatic juice secretion; assay: Pancreatic juice secreted in rats by stimulation with cholecystokinin (CCK-8) (Example 4); format: in vivo, rat; conditions: CCK-8 0.12 μg/kg/h
Experimental: The pancreatic juice secreted in rats was collected in the same manner as described in Example 1. In order to ascertain the effect of LPA on excessive pancreatic juice secretion by CCK, an experiment was conducted according to a protocol as shown in Table 2. As CCK, CCK-8 (Sigma No. C-2175) was used.
Saline was infused through the cervical vein and the femoral vein 1 hour before administration of the drug, during which time the amount of pancreatic juice secreted was measured in order to ascertain that there was no considerable difference between individual animals in the pre-value to the pancreatic juice secretion in the individual animals. After 1 hour infusion of saline, to the 18:3-LPA group and the 18:3-LPC group, were infused 3 mg/kg/h of 18:3-LPA and 10 mg/kg/h of 18:3-LPC, respectively, through the femoral vein. After lapse of 1 hour, CCK-8 was intravenously infused for stimulation through the cervical vein in order to examine the effect of LPA on the excessive pancreatic juice secretion. To the control group (vehicle) with no stimuli by CCK-8, 0.5% BSA in saline was administered through the cervical vein. On the other hand, saline was infused to the LPA control group (vehicle) through the femoral vein. In other groups, CCK-8 was administered through the cervical vein at a rate of 0.12 μg/kg/h and 1 ml/h. In the 18:3-LPA group and the 18:3-LPC group, 3 mg/kg/h of 18:3-LPA and 10 mg/kg/h of 18:3-LPC, respectively, were infused through the femoral vein. In the control group with no stimuli by CCK-8 and in the 18:3-LPA control group (vehicle), saline was administered through the femoral vein. One hour after the final administration (Admn.2), the volume of pancreatic juice collected was measured.

[6] = tested on: pancreatic juice secretion; assay: Effect of LPA receptor or EDG-2 agonist on pancreatic juice secretion in rats (Example 6); format: in vivo; conditions: rat, intravenous infusion through the cervical vein
Experimental: Using an LPA receptor or EDG-2 agonist, the effect of LPA on the pancreatic juice secretion was examined. An LPA receptor agonist 18:3-LPA was intravenously infused to a rat through the cervical vein, and the amount of pancreatic juice secreted was measured. In a group to which 18:3-LPA was administered, the pancreatic juice secretion was inhibited in rats.

[7] = 10 mg/kg/h, 1 ml/h, i.v. infusion

COC(=O)CCSCc1ccc(-c2onc(C)c2NC(=O)OC(C)c2ccccc2Cl)cc1 (stereo not drawn) [Compound 1, methyl 3-({4-[4-({[1-(2-chlorophenyl)ethoxy]carbonyl}amino)-3-methyl-5-isoxazolyl]benzyl}sulfanyl)propanoate]
recovery of pancreatic juice secretion from the inhibition by 18:3-LPA ([1]; Compound 1 administered together with 18:3-LPA (3 mg/kg/h), FIG. 5): significantly recovered | basal (at resting) secretion volume of pancreatic juice vs control group (vehicle) ([1]; Compound 1 alone, 10 mg/kg/h i.v. infusion, after one hour, FIG. 5): no difference

CC/C=C\C/C=C\C/C=C\CCCCCCCC(=O)OCC(O)COP(=O)(O)O (stereo not drawn) [18:3-LPA, 1-linolenoyl-lyzophosphatidic acid]
dose at which the effect on pancreatic juice secretion reached approximately the maximum ([2]; i.v. infusion 1 ml/h): ~3 mg/kg/h | pancreatic juice secretion ([2]; i.v. infusion 1 ml/h for 1 hr, 18:3-LPA 1, 3, 10 mg/kg/h, FIG. 1): decreased | pancreatic juice secretion ([2]; i.v. infusion 1 ml/h for 1 hr, 18:3-LPA 1, 3, 10 mg/kg/h, FIG. 1, listed as LPA): Dose-dependent inhibitory effect | amount of amylase secreted ([3]; rats, 1, 3 or 10 mg/kg/h i.v. infusion, FIG. 2): reduced | amount of lipase secreted ([4]; 3 and 10 mg/kg/h i.v. infusion, FIG. 3): reduced significantly | pancreatic juice secretion increased by CCK-8 ([5]; 3 mg/kg/h intravenous infusion, FIG. 4): reduced the increased pancreatic juice secretion approximately to the control level | pancreatic juice secretion [6]: inhibited | basal secretion volume of pancreatic juice ([1]; 18:3-LPA 3 mg/kg/h i.v. infusion): inhibition of the basal secretion volume was observed

CC/C=C\C/C=C\C/C=C\CCCCCCCC(=O)OCC(O)COP(=O)([O-])OCC[N+](C)(C)C (stereo not drawn) [18:3-LPC, 1-linolenoyl lisophosphatidylcholine, reference compound]
pancreatic juice secretion [2, 7]: no inhibitory effect | amylase secretion ([3]; rats, 10 mg/kg/h, 1 ml/h, i.v. infusion): no inhibitory effect | lipase secretion [4, 7]: no inhibitory effect | pancreatic juice secretion induced by CCK-8 ([5]; 10 mg/kg/h, 1 ml/h, intravenous infusion): no inhibitory effect

CCK-8: cholecystokinin, CCK-8 (Sigma No. C-2175), used to stimulate pancreatic juice secretion (DY(SO3H)MGWMDF-NH2; UniProt P06307 96-103, looked up)
secretion of pancreatic juice (stimulation) ([5]; 1 ml/h through the cervical vein): markedly increased
